In the CheMixHub ionic liquid set:

Experiment: xn = mol fraction of the nth substance listed

O=C(O)CCl + CCCC[N+](CCCC)(CCCC)CCCC.O=S(=O)([O-])O
100 kPa
Details	electrical conductivity, 303.15 K [S/m]	electrical conductivity, 308.15 K [S/m]	electrical conductivity, 313.15 K [S/m]	electrical conductivity, 333.15 K [S/m]	viscosity, 313.15 K [mPa·s]	viscosity, 333.15 K [mPa·s]
x2 = 0.333	0.027	0.0376	–	–	–	–
x2 = 0.5	–	–	0.01	0.0382	1123	294.2

CNC(C)=O + CCCC[n+]1ccn(C)c1.F[B-](F)(F)F
101 kPa
Details	viscosity [mPa·s]
293.15 K, x2 = 0.0711	6.4
293.15 K, x2 = 0.1409	7.42
293.15 K, x2 = 0.4343	19.1
293.15 K, x2 = 0.7774	65.8
298.15 K, x2 = 0.0711	5.41
298.15 K, x2 = 0.2042	7.19
298.15 K, x2 = 0.4992	19.7
298.15 K, x2 = 0.7774	51.7
303.15 K, x2 = 0.1409	5.66
308.15 K, x2 = 0	3.53
308.15 K, x2 = 0.714	24.7
313.15 K, x2 = 0.4992	9.8
318.15 K, x2 = 0.0711	3.3
318.15 K, x2 = 0.1409	3.74

CN(C)CCO + CCCC[n+]1ccn(C)c1.F[P-](F)(F)(F)(F)F
101 kPa
Details	electrical conductivity [S/m]	viscosity [mPa·s]
288.15 K, x1 = 0.3182	0.1534	120
288.15 K, x1 = 0.3764	0.1645	–
288.15 K, x1 = 0.5166	0.1918	63
288.15 K, x1 = 0.709	0.211	29
288.15 K, x1 = 0.8063	0.1998	18
293.15 K, x1 = 0.2143	0.187	117
293.15 K, x1 = 0.4405	–	61
293.15 K, x1 = 0.4637	0.237	–
293.15 K, x1 = 0.5166	0.25	48
293.15 K, x1 = 0.8063	0.245	14.6
298.15 K, x1 = 0.1221	0.211	117
298.15 K, x1 = 0.4637	0.308	–
298.15 K, x1 = 0.9128	0.1874	6.7
298.15 K, x1 = 1	–	3.8
303.15 K, x1 = 0.3764	0.369	–
303.15 K, x1 = 0.4405	–	36
303.15 K, x1 = 0.8063	0.355	9.7
308.15 K, x1 = 0.4405	–	28
308.15 K, x1 = 0.4637	0.483	–
313.15 K, x1 = 0.605	0.611	14
318.15 K, x1 = 0.3764	0.679	–
323.15 K, x1 = 0.3764	0.792	–
323.15 K, x1 = 0.5166	0.849	12.7
323.15 K, x1 = 1	–	2.04

[I-].[Li+] + CCCC[n+]1ccn(C)c1.N#C[N-]C#N
electrical conductivity [S/m], 101 kPa
Details	x2 = 0.917	x2 = 0.9294	x2 = 0.9462	x2 = 0.9628	x2 = 0.9799
288.15 K	–	0.389	0.465	0.506	0.569
298.15 K	0.577	0.643	0.749	0.809	0.892
333.15 K	1.92	2.04	2.28	2.33	2.56

COCCOC + CCCC[n+]1ccn(C)c1.O=S(=O)([N-]S(=O)(=O)C(F)(F)F)C(F)(F)F
Details	electrical conductivity [S/m]
294.5 K, 100 kPa, x2 = 0.02332	0.62

CCOCCO + CCCC[n+]1ccn(C)c1.[Br-]
100 kPa, x2 = 0
Details	viscosity [mPa·s]
298.15 K	1.81
303.15 K	1.61
308.15 K	1.45
313.15 K	1.33

CCCC[n+]1ccn(C)c1.O=[N+]([O-])[O-] + CCCC[n+]1ccn(C)c1.[Cl-]
Details	viscosity [mPa·s]
293 K, 101 kPa, x2 = 0.2549	223
